This test relates to 786-0 complex spheroid viability. The test can be described thus: Anticancer human tumor 786-0 cell line growth inhibition.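 For all read-outs here: spheroids exposed to agents for seven days before readout.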 The conditions noted are these: for viability, T/C: stronger effect = lower value. The source says:
Multicellular complex tumor spheroid response to LSD1 Inhibitor Iadademstat in combination with a variety of drugs and investigational agents in selected tumor cell lines
The current study was undertaken to assess response to LSD1 inhibitors in combination with standard-of-care drugs and investigational agents in solid tumor complex spheroid models as well as in the K-562 leukemia. Complex spheroids include a stromal component modeled by human endothelial cells (HUVEC) and fibroblasts modeled by human mesenchymal stem cells (MSCs). The concentration ranges selected for each drug and investigational agent were based upon clinically achievable concentrations if the clinical Cmax of the agent was known.
Compounds. The drugs and investigational agents used in this study are listed on Table 1. All of the agents used, including staurosporine (NSC755774) and gemcitabine (NSC613327), were obtained from the Developmental Therapeutics Program, NCI. FDA-approved anticancer drugs are available from the NCI at http://dtp.nci.nih.gov/branches/dscb/oncology_drugset_explanation.html. Drugs and investigational agents were >95% pure by proton nuclear magnetic resonance (NMR) and liquid chromatography/mass spectrometry (LC/MS). Stock solutions were prepared at 400x in DMSO, stored at -70 degrees C, and diluted in fresh medium prior to their use. The final concentration of DMSO in cell culture wells never exceeded 0.25% (v/v). The FDA-approved anticancer drug set is available from the Developmental Therapeutics Program at https://dtp.cancer.gov/organization/dscb/obtaining/available_plates.htm. All drugs and investigational agents were tested over a range starting from a high concentration at or near the clinical Cmax and decreasing in half-log increments. If the clinical Cmax for an agent had not been determined, the highest concentration tested was 10 microM.
Cell Lines. The patient-derived cancer cell (PDC) lines: 292921-168-R-J2-PDC, K24384-001-R-PDC, and 521955-158-R2-J5-PDC pancreatic carcinomas, 556581-035-R-J1 ovarian carcinoma, 324938-238-R-J1-PDC, 855422-203-R-J1-PDC and 883617-216-R-J1-PDC urothelial bladder carcinomas, 743489-274-T-PDC renal cell carcinoma, 138582-R-J1 Merkel cell tumor, K60290-347-R-J1 and K57222-313-R-J1-PDC glioblastomas, 653999-131-R-J2-PDC, LG0703-F948-PDC, and 349418-098-R-PDC non-small cell lung carcinomas, 885512-296-R-J2-PDC, 171881-019-R-J1-PDC breast carcinomas and 186277-243-T-J2-PDC and 233499-124-R-J2-PDC colon carcinomas were obtained from the NCI Patient-Derived Models Repository (PDMR, https://pdmr.cancer.gov). The established cell lines NCI/ADR-RES (RRID:CVCL_14520 and OVCAR-5 (RRID:CVCL_1628) ovarian carcinomas, 786-O (RRID:CVCL_1051) and A498 (RRID:CVCL_A498) renal cell carcinoma, NCI-H211 (ATCC, cat. CRL-5824; RRID:CVCL_1529), NCI-H196 (ATCC, cat. CRL-5823, RRID:CVCL_1509), SW 1271 (ATCC, cat. CRL-2177, RRID:CVCL_1716) and NCI-H1876 (ATCC, cat. CRL-5902, RRID:CVCL_1503) small cell lung carcinomas, MDA-MB-231 (RRID:CVCL_0062) and MDA-MB-468 (RRID:CVCL_0419)breast carcinomas (10-12). Pooled donor human umbilical vein endothelial cells (HUVEC, Lonza, cat. CC-2519) and human mesenchymal stem cells (hMSC, Lonza, cat. PT-2501) were purchased from Lonza (Walkersville, MD).
Cell Culture. All cells were maintained in an incubator at 37 degrees C and 5% CO2 with 95% humidity. The PDC lines were cultured according to standard operating procedures established by the NCI PDMR (https://pdmr.cancer.gov). Briefly all PDCs were thawed and cultured in Matrigel-coated flasks prepared with a working solution of 1X Ham's F-12 nutrient mix, without supplementation (Invitrogen, Waltham, MA, cat. 11765054), 100 U/mL penicillin-streptomycin (Invitrogen, cat. 15140122), and 2.5% Matrigel (Corning Inc., Corning, NY, cat. 354248) for the first three passages. […]

[1] abbreviates: curve of first compound, second compound 0.1 µM.
Setting [2] is: curve of first compound, second compound 0.316 µM.
Where [3] appears, read: curve of first compound, second compound 1 µM.
[4] abbreviates: curve of first compound, second compound 3.16 µM.
Where [5] appears, read: curve of first compound, second compound 10 µM.

Values joined by “and” are separate entries in the source; they are usually repeats but may differ in a detail not shown here. Identical values can stand only once.

For the molecule `Nc1ccccc1NC(=O)c1ccc(CNC(=O)OCc2cccnc2)cc1` + NC1CC1c1ccc(-c2cccc(O)c2)cc1, the 50% inhibitory concentration (IC50) is 1520 nM under setting [1]; 1770 nM under setting [2]; 1520 nM under setting [3]; 1380 nM under setting [4]; 1370 nM under setting [5]. In addition, the viability, T/C runs as follows: (second compound 0.1 µM, first compound 0.00949 µM) 107%; (second compound 0.1 µM, first compound 0.03 µM) 108%; (second compound 0.1 µM, first compound 0.0949 µM) 97.8%; (second compound 0.1 µM, first compound 0.3 µM) 96.1%; (second compound 0.1 µM, first compound 0.949 µM) 66.3%; (second compound 0.1 µM, first compound 3 µM) 25.6%. Further, the viability, T/C reads like this: (second compound 0.316 µM, first compound 0.00949 µM) 113%; (second compound 0.316 µM, first compound 0.03 µM) 110%; (second compound 0.316 µM, first compound 0.0949 µM) 112%; (second compound 0.316 µM, first compound 0.3 µM) 103%; (second compound 0.316 µM, first compound 0.949 µM) 78.8%; (second compound 0.316 µM, first compound 3 µM) 25.8%. Further, the viability, T/C runs as follows: (second compound 1 µM, first compound 0.00949 µM) 103%; (second compound 1 µM, first compound 0.03 µM) 114%; (second compound 1 µM, first compound 0.0949 µM) 110%; (second compound 1 µM, first compound 0.3 µM) 91.8%; (second compound 1 µM, first compound 0.949 µM) 71%; (second compound 1 µM, first compound 3 µM) 21.1%. Moreover, the viability, T/C is, setting by setting: (second compound 3.16 µM, first compound 0.00949 µM) 99.4%; (second compound 3.16 µM, first compound 0.03 µM) 102%; (second compound 3.16 µM, first compound 0.0949 µM) 98%; (second compound 3.16 µM, first compound 0.3 µM) 89.9%; (second compound 3.16 µM, first compound 0.949 µM) 64.3%; (second compound 3.16 µM, first compound 3 µM) 20.7%. Besides, the viability, T/C is 103% (second compound 10 µM, first compound 0.00949 µM); 101% (second compound 10 µM, first compound 0.03 µM); 97.9% (second compound 10 µM, first compound 0.0949 µM); 83.1% (second compound 10 µM, first compound 0.3 µM); 67.2% (second compound 10 µM, first compound 0.949 µM); 17.5% (second compound 10 µM, first compound 3 µM).

Regarding `CC1COCCN1c1cc(-c2ccnn2C)c2ccnc(-c3ccn[nH]3)c2n1` (centres undefined), the viability, T/C was 101% and 93.8% (compound 0.00316 µM); 95.2% and 97.4% (compound 0.01 µM); 56.1% and 64.5% (compound 0.0316 µM); 23.4% and 27.1% (compound 0.1 µM); 11.3% and 22.2% (compound 0.316 µM); 12.7% and 18% (compound 1 µM). For the same molecule, the IC50 (curve of compound) is 40 nM and 49.3 nM.

For the molecule `O=C(C=Cn1cnc(-c2cc(C(F)(F)F)cc(C(F)(F)F)c2)n1)NNc1cnccn1` + NC1CCC(NC2CC2c2ccccc2)CC1, the IC50 is, setting by setting: under setting [1], 25.4 nM; under setting [2], 20.2 nM; under setting [3], 22.7 nM; under setting [4], 16.4 nM; under setting [5], 11.9 nM. Further, the viability, T/C (second compound 0.1 µM, first compound 0.00316 µM) was 94.3%; the viability, T/C (second compound 0.1 µM, first compound 0.01 µM) was 68.9%; the viability, T/C (second compound 0.1 µM, first compound 0.0316 µM) was 44.6%; the viability, T/C (second compound 0.1 µM, first compound 0.1 µM) was 31.8%; the viability, T/C (second compound 0.1 µM, first compound 0.316 µM) was 21%; the viability, T/C (second compound 0.1 µM, first compound 1 µM) is 17.9%. Moreover, the viability, T/C (second compound 0.316 µM, first compound 0.00316 µM) was 97.4%; the viability, T/C (second compound 0.316 µM, first compound 0.01 µM) is 61.9%; the viability, T/C (second compound 0.316 µM, first compound 0.0316 µM) was 42.1%; the viability, T/C (second compound 0.316 µM, first compound 0.1 µM) was 30.7%; the viability, T/C (second compound 0.316 µM, first compound 0.316 µM) was 21.2%; the viability, T/C (second compound 0.316 µM, first compound 1 µM) is 18.6%. Besides, the viability, T/C (second compound 1 µM, first compound 0.00316 µM) was 90.8%; the viability, T/C (second compound 1 µM, first compound 0.01 µM) is 63.4%; the viability, T/C (second compound 1 µM, first compound 0.0316 µM) was 42.6%; the viability, T/C (second compound 1 µM, first compound 0.1 µM) is 34.4%; the viability, T/C (second compound 1 µM, first compound 0.316 µM) is 21.6%; the viability, T/C (second compound 1 µM, first compound 1 µM) is 15.7%. Also, the viability, T/C runs as follows: (second compound 3.16 µM, first compound 0.00316 µM) 81%; (second compound 3.16 µM, first compound 0.01 µM) 51.6%; (second compound 3.16 µM, first compound 0.0316 µM) 43.6%; (second compound 3.16 µM, first compound 0.1 µM) 31.7%; (second compound 3.16 µM, first compound 0.316 µM) 20.8%; (second compound 3.16 µM, first compound 1 µM) 14.9%. Further, the viability, T/C is, setting by setting: (second compound 10 µM, first compound 0.00316 µM) 74%; (second compound 10 µM, first compound 0.01 µM) 48.3%; (second compound 10 µM, first compound 0.0316 µM) 37.5%; (second compound 10 µM, first compound 0.1 µM) 35.1%; (second compound 10 µM, first compound 0.316 µM) 19.9%; (second compound 10 µM, first compound 1 µM) 16.9%.

As for `CC1COCCN1c1cc(C2(S(C)(=N)=O)CC2)nc(-c2ccnc3[nH]ccc23)n1` (centres undefined), the viability, T/C runs as follows: (compound 0.0316 µM) 101% and 103%; (compound 0.1 µM) 99.8% and 99.9%; (compound 0.316 µM) 91.4% and 99%; (compound 1 µM) 46.4% and 56.3%; (compound 3.16 µM) 24.9% and 32.6%; (compound 10 µM) 12.3% and 18.9%. Moreover, for the setting “curve of compound”, the IC50 was 954 nM and 1380 nM.

As a reminder, the IC50 is the point on the concentration scale where inhibition reaches its midpoint. In general, viability, T/C refers to the ratio of treated to control.

Source of the values: PubChem BioAssay AID1918944 (Molecular Pharmacology Branch, DTP, NCI, 2023).
